ChEMBL document CHEMBL4428125, “8-Substituted 1,3-dimethyltetrahydropyrazino[2,1-f]purinediones: Water-soluble adenosine receptor antagonists and monoamine oxidase B inhibitors” (Bioorg Med Chem, 2016)
In brackets after ≈: the same amount, converted by molar mass.

Key:
Adenosine receptor A2b = target: T1, Adenosine receptor A2b (Homo sapiens, UniProt P29275); assay: Displacement of [3H]PSB-603 from human A2B receptor expressed in CHO cell membrane; format: cell membranes
T1 sequence (P29275 whole entry): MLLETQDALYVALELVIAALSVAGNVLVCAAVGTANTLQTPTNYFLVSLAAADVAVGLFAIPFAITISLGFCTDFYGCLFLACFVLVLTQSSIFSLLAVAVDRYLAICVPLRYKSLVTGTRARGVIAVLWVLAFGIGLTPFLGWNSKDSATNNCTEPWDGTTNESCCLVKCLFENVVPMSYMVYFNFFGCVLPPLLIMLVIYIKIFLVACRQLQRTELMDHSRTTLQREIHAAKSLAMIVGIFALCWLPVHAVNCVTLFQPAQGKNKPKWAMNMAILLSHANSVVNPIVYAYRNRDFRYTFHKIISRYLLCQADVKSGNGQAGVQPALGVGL

[1] = Thermodynamic solubility of the compound at pH 4; format: physicochemical; conditions: buffer, read-out: Therm_solubility
[2] = target: T2, Adenosine receptor A3 (Homo sapiens) (UniProt P0DMS8); assay: Displacement of [3H]PSB-11 from human A3 receptor expressed in CHO cell membrane at 3 uM by liquid scintillation counting method relative to control relative to control; format: cell membranes
T2 sequence (whole entry): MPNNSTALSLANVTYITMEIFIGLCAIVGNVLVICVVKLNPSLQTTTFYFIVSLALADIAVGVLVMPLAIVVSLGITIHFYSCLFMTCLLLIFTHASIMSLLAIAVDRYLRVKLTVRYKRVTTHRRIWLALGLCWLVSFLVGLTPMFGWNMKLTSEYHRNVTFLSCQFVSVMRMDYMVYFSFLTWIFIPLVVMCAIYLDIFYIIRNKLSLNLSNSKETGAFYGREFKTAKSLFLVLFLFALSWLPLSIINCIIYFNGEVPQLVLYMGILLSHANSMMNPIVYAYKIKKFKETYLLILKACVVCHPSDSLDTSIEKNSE

[3] = Thermodynamic solubility of the compound at pH 7.4; format: physicochemical; conditions: buffer, read-out: Therm_solubility
Adenosine receptor A3 = target: T3, Adenosine receptor A3 (Homo sapiens, UniProt P0DMS8); assay: Displacement of [3H]PSB-11 from human A3 receptor expressed in CHO cell membrane by liquid scintillation counting method relative to control; format: cell membranes
T3 sequence (P0DMS8 whole entry): T2 sequence (whole entry)

Adenosine receptor A1 [4] = target: T4, Adenosine receptor A1 (Rattus norvegicus, UniProt P25099); assay: Displacement of [3H]CCPA from A1 receptor in rat brain cortex membranes by liquid scintillation counting method; format: cell membranes
T4 sequence (P25099 whole entry): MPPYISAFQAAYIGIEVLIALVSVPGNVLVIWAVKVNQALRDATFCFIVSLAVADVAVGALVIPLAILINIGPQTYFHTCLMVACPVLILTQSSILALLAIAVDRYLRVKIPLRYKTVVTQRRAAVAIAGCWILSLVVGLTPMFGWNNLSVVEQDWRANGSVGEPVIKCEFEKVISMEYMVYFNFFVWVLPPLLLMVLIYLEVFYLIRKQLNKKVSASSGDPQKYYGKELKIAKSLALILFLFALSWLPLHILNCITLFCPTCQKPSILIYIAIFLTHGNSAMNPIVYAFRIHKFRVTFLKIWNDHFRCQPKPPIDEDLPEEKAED

[5] = Thermodynamic solubility of the compound at pH 1; format: physicochemical; conditions: buffer, read-out: Therm_solubility
[6] = target: Adenosine receptor A2a (Rattus norvegicus) (UniProt P30543); assay: Displacement of [3H]MSX from A2A receptor in rat brain striatum membranes at 1 uM measured after 30 mins by liquid scintillation counting method relative to control; format: cell membranes
[7] = target: T5, Amine oxidase [flavin-containing] B (Homo sapiens, UniProt P27338); assay: Inhibition of recombinant human MAO-B expressed in baculovirus infected BTI insect cells at 10 uM preincubated for 30 mins followed by addition of p-tyramine as substrate measured over 45 mins by Amplex Red MAO assay relative to control; conditions: 0.75 h
T5 sequence (P27338 whole entry): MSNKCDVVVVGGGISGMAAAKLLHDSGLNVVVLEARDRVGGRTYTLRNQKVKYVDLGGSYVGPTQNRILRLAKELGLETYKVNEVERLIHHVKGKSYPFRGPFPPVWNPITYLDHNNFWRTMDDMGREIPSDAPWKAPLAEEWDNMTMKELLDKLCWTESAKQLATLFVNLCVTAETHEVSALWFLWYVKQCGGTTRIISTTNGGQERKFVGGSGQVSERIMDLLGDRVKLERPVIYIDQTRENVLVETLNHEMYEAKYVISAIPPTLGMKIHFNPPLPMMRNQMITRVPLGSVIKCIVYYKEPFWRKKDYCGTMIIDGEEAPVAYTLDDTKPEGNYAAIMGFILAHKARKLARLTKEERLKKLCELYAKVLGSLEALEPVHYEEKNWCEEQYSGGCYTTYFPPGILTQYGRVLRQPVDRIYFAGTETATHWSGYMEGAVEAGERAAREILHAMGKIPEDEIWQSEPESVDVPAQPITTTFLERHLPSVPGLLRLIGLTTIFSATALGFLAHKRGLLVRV

[8] = target: T6, Adenosine receptor A1 (Rattus norvegicus) (UniProt P25099); assay: Displacement of [3H]CCPA from A1 receptor in rat brain cortex membranes at 1.5 uM by liquid scintillation counting method; format: cell membranes
T6 sequence (whole entry): T4 sequence (P25099 whole entry)

[9] = target: T5, Amine oxidase [flavin-containing] B; assay: Inhibition of recombinant human MAO-B expressed in baculovirus infected BTI insect cells preincubated for 30 mins followed by addition of p-tyramine as substrate measured over 45 mins by Amplex Red MAO assay
[10] = target: T7, Amine oxidase [flavin-containing] A (Homo sapiens, UniProt P21397); assay: Inhibition of recombinant human MAO-A expressed in baculovirus infected BTI insect cells preincubated for 30 mins followed by addition of p-tyramine as substrate measured over 45 mins by Amplex Red MAO assay
T7 sequence (P21397 whole entry): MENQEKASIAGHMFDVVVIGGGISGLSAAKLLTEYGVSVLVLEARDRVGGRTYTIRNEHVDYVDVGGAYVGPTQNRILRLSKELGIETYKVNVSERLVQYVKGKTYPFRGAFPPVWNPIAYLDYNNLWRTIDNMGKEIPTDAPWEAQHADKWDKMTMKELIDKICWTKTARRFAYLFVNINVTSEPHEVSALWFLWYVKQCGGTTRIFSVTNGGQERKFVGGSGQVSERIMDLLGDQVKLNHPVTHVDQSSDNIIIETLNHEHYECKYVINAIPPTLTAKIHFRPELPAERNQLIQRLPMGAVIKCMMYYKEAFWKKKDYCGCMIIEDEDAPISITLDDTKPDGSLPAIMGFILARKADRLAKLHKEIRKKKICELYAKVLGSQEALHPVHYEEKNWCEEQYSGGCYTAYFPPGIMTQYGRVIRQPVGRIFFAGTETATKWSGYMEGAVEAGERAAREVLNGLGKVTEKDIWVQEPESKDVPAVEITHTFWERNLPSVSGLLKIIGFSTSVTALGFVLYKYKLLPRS

Adenosine receptor A2a [11] = target: Adenosine receptor A2a (Rattus norvegicus, UniProt P30543); assay: Displacement of [3H]MSX from A2A receptor in rat brain striatum membranes measured after 30 mins by liquid scintillation counting method; format: cell membranes
[12] = target: T8, Adenosine receptor A2b (Homo sapiens) (UniProt P29275); assay: Displacement of [3H]PSB-603 from human A2B receptor expressed in CHO cell membrane at 1 uM relative to control; format: cell membranes
T8 sequence (whole entry): T1 sequence (P29275 whole entry)

[13] = target: T7, Amine oxidase [flavin-containing] A; assay: Inhibition of recombinant human MAO-A expressed in baculovirus infected BTI insect cells at 10 uM preincubated for 30 mins followed by addition of p-tyramine as substrate measured over 45 mins by Amplex Red MAO assay relative to control; conditions: 0.75 h
Adenosine receptor A1 [14] = target: T9, Adenosine receptor A1 (Homo sapiens, UniProt P30542); assay: Displacement of [3H]CCPA from human A1 receptor expressed in CHO cell membrane by liquid scintillation counting method; format: cell membranes
T9 sequence (P30542 whole entry): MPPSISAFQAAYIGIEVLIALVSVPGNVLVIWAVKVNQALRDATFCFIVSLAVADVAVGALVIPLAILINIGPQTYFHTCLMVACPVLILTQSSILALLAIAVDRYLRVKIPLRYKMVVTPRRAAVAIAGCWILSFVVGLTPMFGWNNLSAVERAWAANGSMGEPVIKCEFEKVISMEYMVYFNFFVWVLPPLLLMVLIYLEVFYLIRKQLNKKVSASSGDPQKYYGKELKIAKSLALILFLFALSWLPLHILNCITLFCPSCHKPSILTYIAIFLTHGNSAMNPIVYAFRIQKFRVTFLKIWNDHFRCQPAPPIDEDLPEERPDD

[15] = target: T2, Adenosine receptor A3 (Homo sapiens); assay: Displacement of [3H]PSB-11 from human A3 receptor expressed in CHO cell membrane at 10 uM by liquid scintillation counting method relative to control relative to control; format: cell membranes
Adenosine receptor A2a [16] = target: Adenosine receptor A2a (Homo sapiens, UniProt P29274); assay: Displacement of [3H]MSX from human A2A receptor measured after 30 mins by liquid scintillation counting method
[17] = target: T8, Adenosine receptor A2b (Homo sapiens); assay: Displacement of [3H]PSB-603 from human A2B receptor expressed in CHO cell membrane at 0.3 uM relative to control; format: cell membranes

Sequence of Adenosine receptor A2a (Rattus norvegicus) (P30543 whole entry): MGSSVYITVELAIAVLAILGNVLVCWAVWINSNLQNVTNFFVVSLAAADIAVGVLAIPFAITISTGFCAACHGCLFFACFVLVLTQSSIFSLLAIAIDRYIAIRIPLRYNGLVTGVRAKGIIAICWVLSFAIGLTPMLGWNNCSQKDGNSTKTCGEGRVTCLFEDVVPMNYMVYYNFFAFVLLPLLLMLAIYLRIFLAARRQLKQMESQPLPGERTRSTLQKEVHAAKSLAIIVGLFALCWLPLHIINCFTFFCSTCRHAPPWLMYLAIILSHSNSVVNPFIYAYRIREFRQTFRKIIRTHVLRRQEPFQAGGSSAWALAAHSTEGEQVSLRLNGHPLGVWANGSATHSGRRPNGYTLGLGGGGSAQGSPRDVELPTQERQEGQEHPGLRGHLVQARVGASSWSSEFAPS
Sequence of Adenosine receptor A2a (Rattus norvegicus, UniProt P30543) (P30543 whole entry): as above
Sequence of Adenosine receptor A2a (Homo sapiens, UniProt P29274) (P29274 whole entry): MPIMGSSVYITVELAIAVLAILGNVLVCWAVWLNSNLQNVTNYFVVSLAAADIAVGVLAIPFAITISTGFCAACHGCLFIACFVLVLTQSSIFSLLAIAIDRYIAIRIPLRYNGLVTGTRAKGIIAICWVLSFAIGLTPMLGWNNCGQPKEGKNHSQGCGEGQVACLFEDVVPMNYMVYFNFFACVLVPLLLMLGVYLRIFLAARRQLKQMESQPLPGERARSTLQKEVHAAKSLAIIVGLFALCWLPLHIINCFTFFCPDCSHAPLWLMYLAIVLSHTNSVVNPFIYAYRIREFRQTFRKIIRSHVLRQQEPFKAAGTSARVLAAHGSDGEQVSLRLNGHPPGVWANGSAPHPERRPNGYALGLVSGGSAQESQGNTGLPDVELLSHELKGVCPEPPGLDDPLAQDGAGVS

Row | SMILES | Ki (Adenosine receptor A2b) [nM] | solubility thermodynamic [1] [µg/mL] | Activity [2] [%] | solubility thermodynamic [3] [µg/mL] | Ki (Adenosine receptor A3) [nM] | Ki (Adenosine receptor A1 [4]) [nM] | solubility thermodynamic [5] [µg/mL] | Activity [6] [%] | inhibition at 10 µM [7] [%] | Activity [8] [%] | IC50 [9] [nM] | IC50 [10] [nM] | Ki (Adenosine receptor A2a [11]) [nM] | Activity [12] [%] | inhibition at 10 µM [13] [%] | Ki (Adenosine receptor A1 [14]) [nM] | Activity [15] [%] | Ki (Adenosine receptor A2a [16]) [nM] | Activity [17] [%]
1 | Cn1c(=O)c2c(nc3n2CCN(CCCn2cccc2)C3)n(C)c1=O | > 1000 | < 200 | 3 | < 70 | > 3000 | > 1500 | > 1500 | 10 | 27 | -4 | > 10000 | > 10000 | > 1000 | 10 | 7 | – | – | – | –
2 | Cn1c(=O)c2c(nc3n2CCN(C2Cc4ccccc4C2)C3)n(C)c1=O | > 1000 | – | 11 | – | > 3000 | > 1500 | – | 26 | – | 12 | 7590 | – | > 10000 | 13 | – | – | – | – | –
3 | Cn1c(=O)c2c(nc3n2CCN(CCCc2cccc(Br)c2)C3)n(C)c1=O | > 1000 | < 0.5 | – | < 0.5 | > 10000 | > 1500 | 100 (≈ 231 µM) | – | 26 | 17 | > 10000 | > 10000 | 450 | 19 | 16 | 3880 | 35 | 512 | –
4 | C#CCN1CCn2c(nc3c2c(=O)n(C)c(=O)n3C)C1 | > 300 | – | 19 | 800 (≈ 2930 µM) | > 10000 | > 1500 | – | 28 | 27 | 13 | > 10000 | – | > 1000 | 10 | – | – | 19 | – | 10
5 | COc1ccc(Br)cc1CCN1CCn2c(nc3c2c(=O)n(C)c(=O)n3C)C1 | > 1000 | < 0.5 | 14 | < 0.5 | > 3000 | > 1500 | 300 (≈ 669 µM) | 27 | 3 | 3 | > 10000 | > 10000 | > 1000 | 8 | 34 | – | – | – | –
6 | Cn1c(=O)c2c(nc3n2CCN(Cc2csc(-c4ccc(Cl)cc4)n2)C3)n(C)c1=O | > 1000 | – | – | < 0.5 | > 10000 | 76 | – | – | 47 | – | – | > 10000 | 62 | 17 | 3 | 492 | 43 | 346 | –
7 | Cn1c(=O)c2c(nc3n2CCN(Cc2csc(-c4cccc(Cl)c4)n2)C3)n(C)c1=O | > 1000 | – | – | 2 (≈ 4.52 µM) | > 10000 | 437 | – | – | -2 | – | > 10000 | > 10000 | 160 | 6 | -13 | 73 | 40 | 363 | –
8 | Cn1c(=O)c2c(nc3n2CCN(CCOc2ccccc2)C3)n(C)c1=O | > 300 | 60 (≈ 169 µM) | – | 20 (≈ 56.3 µM) | > 10000 | > 1500 | 1100 (≈ 3100 µM) | 24 | 16 | -1 | > 10000 | > 10000 | > 1000 | – | 11 | – | 32 | – | 4
9 | Cn1c(=O)c2c(nc3n2CCN(CCc2ccc4c(c2)OCO4)C3)n(C)c1=O | > 1000 | 1 (≈ 2.61 µM) | 9 | < 0.5 | > 3000 | > 1500 | 300 (≈ 782 µM) | – | 24 | 5 | > 10000 | – | 6170 | 12 | – | – | – | – | –
